According to patent US10577383B2, “Macrocyclic inhibitors of myeloperoxidase” (BRISTOL-MYERS SQUIBB COMPANY, priority 2016, dated 2020):

Experiments:
Assay type in all cases: biochemical
myeloperoxidase [1] = molecular target: T1, myeloperoxidase (Homo sapiens (Human), UniProt P05164); assay: MPO Peroxidation Assay (Amplex Red Assay); conditions: MPO peroxidation activity, 100 mM KPi (pH 7.4), ten minute preincubation; potency ranges defined in nM
Protocol: MPO Peroxidation Assay (Amplex Red Assay)
MPO peroxidation activity was measured in 100 mM KPi (pH 7.4) by utilizing the non-fluorescent reagent Amplex Red (Invitrogen Cat. #A12222) which can be oxidized to the highly fluorescent resorufin. Amplex Red is oxidized by the peroxidase action of MPO to resorufin. Reactions were carried out in 50 μL total volume by adding a 25 μL mixture of 200 pM myeloperoxidase and 40 nM H2O2 (Sigma #349887) to 100 nL inhibitor in 100% DMSO in a 384 well Perkin Elmer Optiplate. Enzyme and compound were preincubated for ten minutes at room temperature.
After the ten minute preincubation, 25 μL of an Amplex Red mixture containing 200 μM Amplex Red and 10 mM H2O2 was added to the plate. Kinetic determinations were carried out immediately on a Perkin Elmer Envision (15 minute kinetic read, Ex: 535 nm, Em: 590 nm).
(§1) IC50 values were calculated by determining the slope of the linear portion of the kinetic trace (180-540 secs), and using that calculated slope to determine % inhibition occurring at each concentration of inhibitor using the following equation:
(§2) [formula] where A=minimal Y value (activity level of inhibited sample), B=maximal Y value (activity level of uninhibited sample), C=Log IC50, D=Hill Slope, x=concentration of inhibitor. MPO Chlorination Assay (APF Assay) MPO chlorination activity was measured in 100 mM KPi (pH 7.4) by utilizing the non-fluorescent reagent Aminophenyl fluorescein (APF, Invitrogen Cat. #A36003). APF is cleaved by (—OCl) to yield the fluorescent compound fluorescein. Reactions were carried out in 50 μL total volume by adding a 25 μL mixture of 200 pM myeloperoxidase and 120 mM NaCl to 100 nL inhibitor in 100% DMSO in a 384 well, non-binding surface clear bottom plate (Corning #3655). Enzyme, inhibitor, and chloride were preincubated for ten minutes at room temperature.

myeloperoxidase [2] = molecular target: T1, myeloperoxidase; assay: MPO Chlorination Assay (APF Assay); conditions: MPO chlorination activity, 100 mM KPi (pH 7.4), 120 mM NaCl, ten minute preincubation; potency ranges defined in nM
Protocol: as §2
After the ten minute preincubation, 25 μL of an APF mixture containing […], 120 mM NaCl and 10 μM H2O2 was added to the plate using the internal dispensing system of a Hammatsu FDSS 6000. Kinetic determinations were carried out immediately on the FDSS 6000 (3 minute kinetic read, 1 read every second, ex: 485 nm, em: 535 nm). IC50 values for inhibitors were calculated by taking the slope of the linear portion of the kinetic measurement (20 seconds to 80-120 secs).
as §1
(§3) [formula] where A=minimal Y value (activity level of inhibited sample), B=maximal Y value (activity level of uninhibited sample), C=Log IC50, D=Hill Slope, x=concentration of inhibitor. EPX Bromination Assay

EPX = EPX (Homo sapiens (Human), UniProt P11678); assay: EPX Bromination Assay; conditions: EPX bromination activity, 100 mM KPi (pH 7.4), 3-bromo tyrosine formation
Protocol: as §3
EPX bromination activity was measured in 100 mM KPi (pH 7.4) by monitoring the H2O2 catalyzed formation of 3-bromo tyrosine from tyrosine and potassium bromide. A 50 μl mixture of 0.6 μM EPX (Lee Biosolutions Cat. #342-60) was added to 100 nL inhibitor in 100% DMSO in a 384 well REMP plate. Enzyme and compound were preincubated for ten minutes at room temperature.
After the ten minute preincubation of enzyme and inhibitor, 25 μL of a mixture containing 400 μM tyrosine and 1200 μM potassium bromide was added to the plate containing enzyme and inhibitor, followed by the addition of 25 μl of 20 μM H2O2. The reaction was allowed to proceed for 15 minutes, at which time it was quenched with 10 μL of 20% TCA. The final concentrations of all components were 0.3 μM EPX, 100 μM tyrosine, […], 5 μM H2O2, 0.1% DMSO, 2.0% TCA.
IC50 values were determined by determining the peak areas of 3-bromo-tyrosine present at the end of the 15 minute reaction and fitting the data to:
[formula] where A=minimal Y value (activity level of inhibited sample), B=maximal Y value (activity level of uninhibited sample), C=Log IC50, D=Hill Slope, x=concentration of inhibitor.
Reversed-phase analysis was performed on a Waters Acquity Ultra Performance LC system using an Acquity UPLC BEH C18 […], 2.1×50 mm analytical column. The column was maintained at 60° C. Samples were eluted using a gradient of 0%-100% B over 2.5 minutes, followed by equilibration with 100% A for 1 minute where A consisted of 0.1% TFA and B consisted of 90% MeOH/0.1% TFA at a flow rate of 0.6 mL/min. The retention time of 3-bromo tyrosine was 1.22 min

T1 sequence (P05164 49-745): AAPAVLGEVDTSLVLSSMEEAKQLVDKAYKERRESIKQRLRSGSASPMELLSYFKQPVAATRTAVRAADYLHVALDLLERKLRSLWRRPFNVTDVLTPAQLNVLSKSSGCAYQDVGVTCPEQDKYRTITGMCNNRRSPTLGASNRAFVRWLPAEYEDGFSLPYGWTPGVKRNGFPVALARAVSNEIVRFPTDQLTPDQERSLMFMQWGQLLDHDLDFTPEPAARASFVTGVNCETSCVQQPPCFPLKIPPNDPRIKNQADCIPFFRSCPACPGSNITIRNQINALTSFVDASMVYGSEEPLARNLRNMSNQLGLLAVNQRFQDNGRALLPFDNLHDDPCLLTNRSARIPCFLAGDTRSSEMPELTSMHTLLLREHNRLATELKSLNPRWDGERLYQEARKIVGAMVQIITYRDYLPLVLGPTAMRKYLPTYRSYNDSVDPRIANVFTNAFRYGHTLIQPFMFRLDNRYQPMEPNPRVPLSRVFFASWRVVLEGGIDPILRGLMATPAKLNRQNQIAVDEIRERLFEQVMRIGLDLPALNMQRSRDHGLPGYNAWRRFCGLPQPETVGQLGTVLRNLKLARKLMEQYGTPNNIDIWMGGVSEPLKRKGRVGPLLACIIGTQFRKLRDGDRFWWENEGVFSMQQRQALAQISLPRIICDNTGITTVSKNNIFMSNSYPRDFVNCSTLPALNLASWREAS
Chain of EPX (P11678 251-715): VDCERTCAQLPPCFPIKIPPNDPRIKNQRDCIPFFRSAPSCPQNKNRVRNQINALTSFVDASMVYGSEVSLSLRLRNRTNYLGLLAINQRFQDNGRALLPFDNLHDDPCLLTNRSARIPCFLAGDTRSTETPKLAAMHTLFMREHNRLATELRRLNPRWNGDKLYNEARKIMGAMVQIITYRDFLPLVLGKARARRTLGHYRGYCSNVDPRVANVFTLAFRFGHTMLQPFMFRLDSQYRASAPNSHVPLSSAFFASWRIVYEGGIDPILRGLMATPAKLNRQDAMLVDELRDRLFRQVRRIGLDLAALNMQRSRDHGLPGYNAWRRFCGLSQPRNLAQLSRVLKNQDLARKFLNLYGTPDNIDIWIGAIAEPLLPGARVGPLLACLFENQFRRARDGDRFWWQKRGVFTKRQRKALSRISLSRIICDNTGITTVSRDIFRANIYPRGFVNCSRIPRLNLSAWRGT
Chain of EPX (P11678 140-250): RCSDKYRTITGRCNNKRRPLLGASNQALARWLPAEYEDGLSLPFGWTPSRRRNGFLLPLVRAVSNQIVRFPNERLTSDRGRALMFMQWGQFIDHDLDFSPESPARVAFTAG

IC50 (myeloperoxidase [1]) [nM] | IC50 (myeloperoxidase [2]) [nM] | IC50 (EPX) [nM] | Compound
1 to 100 | 1 to 100 | 37 | Nc1cc(C2CCNCCc3cccc(c3)Oc3cccc(c3)Cn3cc2cn3)c2nn[nH]c2n1 (single isomer, unassigned) [Example 5, 7-{18-oxa-3,4,10-triazatetracyclo[17.3.1.1^3,^6.1^13,^1^7]pentacosa-1(23),4,6(25),13,15,17(24),19,21-octaen-7-yl}-3H-[1,2,3]triazolo[4,5-b]pyridin-5-amine]
101 to 999 | 101 to 999 | 63 | Nc1cc(C2CCNCC3(CC3)COc3cccc(c3)Cn3cc2cn3)c2nn[nH]c2n1 (single isomer, unassigned) [Example 20, 7-{14′-Oxa-3′,4′,10′-triazaspiro[cyclopropane-1,12′-tricyclo[13.3.1.1^3,^6]icosane]-1′(19′),4′,6′(20′),15′,17′-pentaen-7′-yl}-3H-[1,2,3]triazolo[4,5-b]pyridin-5-amine]
101 to 999 | 1 to 100 | 190 | Nc1cc(C2CCNCc3cccc(c3)COc3cccc(c3)Cn3cc2cn3)c2nn[nH]c2n1 (stereo not drawn) [Example 2, 7-{18-oxa-3,4,10-triazatetracyclo[17.3.1.1^3,^6.1^12,^1^6]pentacosa-1(23),4,6(25),12,14,16(24),19,21-octaen-7-yl}-3H-[1,2,3]triazolo[4,5-b]pyridin-5-amine]
101 to 999 | 1 to 100 | 220 | Nc1cc(C2CCNC3CCC(CC3)COc3cccc(c3)Cn3cc2cn3)c2nn[nH]c2n1 (stereo not drawn) [Example 18, 7-{3-Oxa-10,11,17-triazatetracyclo[16.2.2.1^4,^8.1^1^0,^13]tetracosa-4,6,8(24),11,13(23)-pentaen-14-yl}-3H-[1,2,3]triazolo[4,5-b]pyridin-5-amine]
